Assay results published in ChEMBL document CHEMBL3885881, “DrugMatrix”.

Organism: Rattus norvegicus
Assay: DrugMatrix - Regimen: Daily Repeat
Type: toxicity, organism-based, Sprague-Dawley
Set-up: regimen Daily Repeat, gender Male, age 6-8 weeks
Conditions: in vivo, po, route oral GAVAGE, […]; for ABSOLUTE SEGMENTED NEUTROPHIL / BASOPHIL / EOSINOPHIL / ERYTHROCYTE COUNT / HEMATOCRIT / HEMOGLOBIN / LYMPHOCYTE / MEAN CORPUSCULAR HEMOGLOBIN CONCENTRATION / MEAN CORPUSCULAR VOLUME / NUCLEATED RED BLOOD CELLS / PLATELET COUNT / ABSOLUTE BASOPHIL / ABSOLUTE EOSINOPHIL / ABSOLUTE LYMPHOCYTE / ABSOLUTE MONOCYTE: tissue Blood
[1] = 430 mg/kg, 120 h, dose level M3, time 5 day
[2] = 430 mg/kg, 120 h, tissue Plasma, dose level M3, time 5 day
[3] = 860 mg/kg, 72 h, dose level High, time 3 day
[4] = 860 mg/kg, 72 h, tissue Plasma, dose level High, time 3 day
[5] = 860 mg/kg, dose level High, time 7 day
[6] = 860 mg/kg, tissue Plasma, dose level High, time 7 day

SMILES: CC(C)OC(=O)C(C)(C)Oc1ccc(C(=O)c2ccc(Cl)cc2)cc1 [FENOFIBRATE]
- ABSOLUTE SEGMENTED NEUTROPHIL [1]: 843.5 CELLS/uL
- BASOPHIL [1]: 0%
- EOSINOPHIL [1]: 1%
- ERYTHROCYTE COUNT [1]: 5.34 x10E6/uL
- HEMATOCRIT [1]: 33.8%
- HEMOGLOBIN [1]: 13.3 G/DL
- LYMPHOCYTE [1]: 87.5%
- MEAN CORPUSCULAR HEMOGLOBIN CONCENTRATION [1]: 39.35 G/DL
- MEAN CORPUSCULAR VOLUME [1]: 63.4 fL
- NUCLEATED RED BLOOD CELLS [1]: 0 /100WBC
- PLATELET COUNT [1]: 1064.5 x10E3/uL
- ALANINE AMINOTRANSFERASE [2]: 87.5 u/L
- ALBUMIN [2]: 4.65 G/DL
- ALKALINE PHOSPHATASE [2]: 418.5 u/L
- ASPARTATE AMINOTRANSFERASE [2]: 104.5 u/L
- BLOOD UREA NITROGEN [2]: 13 mg/dL
- CARBON DIOXIDE [2]: 27 mmol/L
- CREATINE PHOSPHOKINASE [2]: 307 u/L
- CREATININE [2]: 0.31 mg/dL
- LACTATE DEHYDROGENASE [2]: 104 u/L
- TOTAL BILIRUBIN [2]: 0.15 mg/dL
- TOTAL PROTEIN [2]: 5.5 G/DL
- URIC ACID [2]: 0.6 mg/dL
- ABSOLUTE BASOPHIL [3]: 0 CELLS/uL
- ABSOLUTE EOSINOPHIL [3]: 44 CELLS/uL
- ABSOLUTE LYMPHOCYTE [3]: 10937 CELLS/uL
- ABSOLUTE MONOCYTE [3]: 410.5 CELLS/uL
- ABSOLUTE SEGMENTED NEUTROPHIL [3]: 2833.5 CELLS/uL
- BASOPHIL [3]: 0%
- EOSINOPHIL [3]: 0.25%
- ERYTHROCYTE COUNT [3]: 6.03 x10E6/uL
- HEMATOCRIT [3]: 37.23%
- HEMOGLOBIN [3]: 15.3 G/DL
- LYMPHOCYTE [3]: 75.75%
- MEAN CORPUSCULAR HEMOGLOBIN CONCENTRATION [3]: 41.35 G/DL
- MEAN CORPUSCULAR VOLUME [3]: 61.7 fL
- NUCLEATED RED BLOOD CELLS [3]: 0 /100WBC
- PLATELET COUNT [3]: 961.5 x10E3/uL
- ALANINE AMINOTRANSFERASE [4]: 233.5 u/L
- ALBUMIN [4]: 4.15 G/DL
- ALKALINE PHOSPHATASE [4]: 474.75 u/L
- ASPARTATE AMINOTRANSFERASE [4]: 132.75 u/L
- BLOOD UREA NITROGEN [4]: 13 mg/dL
- CARBON DIOXIDE [4]: 29 mmol/L
- CREATINE PHOSPHOKINASE [4]: 233.75 u/L
- CREATININE [4]: 0.14 mg/dL
- LACTATE DEHYDROGENASE [4]: 160.5 u/L
- TOTAL BILIRUBIN [4]: 0.28 mg/dL
- TOTAL PROTEIN [4]: 5.55 G/DL
- ABSOLUTE BASOPHIL [5]: 0 CELLS/uL
- ABSOLUTE EOSINOPHIL [5]: 0 CELLS/uL
- ABSOLUTE LYMPHOCYTE [5]: 6863 CELLS/uL
- ABSOLUTE MONOCYTE [5]: 370.5 CELLS/uL
- ABSOLUTE SEGMENTED NEUTROPHIL [5]: 5116.5 CELLS/uL
- BASOPHIL [5]: 0%
- EOSINOPHIL [5]: 0%
- ERYTHROCYTE COUNT [5]: 6.05 x10E6/uL
- HEMATOCRIT [5]: 35.15%
- HEMOGLOBIN [5]: 13.8 G/DL
- LYMPHOCYTE [5]: 55.5%
- MEAN CORPUSCULAR HEMOGLOBIN CONCENTRATION [5]: 39.4 G/DL
- MEAN CORPUSCULAR VOLUME [5]: 57.6 fL
- NUCLEATED RED BLOOD CELLS [5]: 2 /100WBC
- PLATELET COUNT [5]: 1590.5 x10E3/uL
- ALANINE AMINOTRANSFERASE [6]: 283.5 u/L
- ALBUMIN [6]: 3 G/DL
- ALKALINE PHOSPHATASE [6]: 812 u/L
- ASPARTATE AMINOTRANSFERASE [6]: 328 u/L
- BLOOD UREA NITROGEN [6]: 63 mg/dL
- CARBON DIOXIDE [6]: 25 mmol/L
- CREATINE PHOSPHOKINASE [6]: 1456.5 u/L
- CREATININE [6]: 0.58 mg/dL
- LACTATE DEHYDROGENASE [6]: 638 u/L
- TOTAL BILIRUBIN [6]: 2.9 mg/dL
- TOTAL PROTEIN [6]: 5.7 G/DL
